{"source": "patent EP1044000B1", "about": "“COMBINATION THERAPY FOR THE TREATMENT OF AIDS” (MERCK & CO., INC., priority 1997, dated 1999)", "system": "wild-type HIV-1", "assay": "Cell Spread Assay (described in US 5,646,148)", "format": "cell-based", "details": "against wild-type HIV-1", "data": [{"smiles": "CC(C)(C)NC(=O)[C@@H]1CN(Cc2cccnc2)CCN1C[C@@H](O)C[C@@H](Cc1ccccc1)C(=O)N[C@H]1c2ccccc2C[C@H]1O", "note": "[Indinavir, N-(2(R)-hydroxy-1(S)-indanyl)-2(R)-phenylmethyl-4-(S)-hydroxy-5-(1-(4-(3-pyridylmethyl)-2(S)-N'-(t-butylcarboxamido)-piperazinyl))-pentaneamide]", "values": [{"measurement": "CIC95", "value": 50, "unit": "nM"}]}]}
